In US20260207649A1, “LSD1 INHIBITOR AND PRMT6 INHIBITOR FOR USE IN THE TREATMENT OF A DISEASE ASSOCIATED WITH GAIN-OF-FUNCTION OF ANDROGEN RECEPTOR (AR) AND/OR WITH OVEREXPRESSION OF AN AR COACTIVATOR” (FONDAZIONE TELETHON ETS(30%), priority 2022, published 2026):
Like-named read-outs stand apart in the source and are kept apart here.

What was measured:
polyQ-expanded AR = assay: Transcriptional (ARE-luciferase) assay in HEK293T cells expressing polyQ-expanded AR; format: cell-based, human; conditions: AR65Q, DHT 10 nM, 16 h; for polyQ-expanded AR transactivation induced by DHT: mock-transfected, inhibitor 10 μM
Procedure: (§1) Cell Cultures, Transfection, and Transduction MN1^9 and HEK293T (ATCC) cells were cultured and plated in DMEM complete medium [Dulbecco's Modified Eagle Medium supplemented with 10% fetal bovine serum (FBS), 1% penicillin/streptomycin (pen/strep), and 1% L-glutamine] and LNCaP cells in RPMI complete medium (Gibco Roswell Park Memorial Institute supplemented with 10% FBS, 1% penicillin/streptomycin, and 1% L-glutamine). C2C12 cells were cultured and differentiated to myotubes. Cells were kept in a humidified incubator with 5% CO2 at 37° C. HEK293T cells were transfected with polyethyleneimine (PEI) linear MW 25,000 Da (Sigma-Aldrich) according to well dimensions. DNA: PEI (0.5% v/v) ratio was 1:1. At 24 hours after the transfection the DMEM complete medium supplemented with 10% FBS was changed with DMEM supplemented with charcoal stripped FBS and cells were treated with vehicle (ethanol) or 10 nM DHT and harvested for the different analysis 24 h after the treatment. For the pharmacological inhibition, we treated cells with the LSD1 catalytic inhibitor tranylcypromine (TCP) and the PRMT inhibitor adenosine dialdehyde (AdOx) both at a final concentration of 10 μM, instead for the selective LSD1 inhibitor SP-2509, we used it at a final concentration of 100 nm. MN-1 cells were transfected with Lipofectamine 2000 according to manufacturer instructions (Thermo Fisher). MN1 and LNCaP cells were transiently transduced with lentiviruses (MOI 30) or transfected with 2 μg DNA using Lipofectamine 2000 CD Transfection Reagent (ThermoFisher Scientific, 12566014). The following day, positively transfected cells were selected with […] Blasticidin (PanReacApplichem, A3784,0025). After 24 hours of selection or at 48 hours post-transduction, cells were induced with 10 nM dihydrotestosterone (DHT) in DMEM or RPMI medium supplemented with 10% charcoal-stripped FBS, 1% pen/strep, and 1% L-glutamine. The SBMA iPSCs were derived and differentiated. iPSCs were maintained on Matrigel (Corning, 354277) coated tissue culture dishes in E8 Flex medium (Thermo Fisher, A2858501). […]

normal AR = assay: Transcriptional (ARE-luciferase) assay in HEK293T cells expressing normal AR; format: cell-based, human; conditions: AR24Q, mock-transfected, DHT 10 nM, 16 h, inhibitor 10 μM
Procedure: Cell Cultures, Transfection, and Transduction MN1^9 and HEK293T (ATCC) cells were cultured and plated in DMEM complete medium [Dulbecco's Modified Eagle Medium supplemented with 10% fetal bovine serum (FBS), 1% penicillin/streptomycin (pen/strep), and 1% L-glutamine] and LNCaP cells in RPMI complete medium (Gibco Roswell Park Memorial Institute supplemented with 10% FBS, 1% penicillin/streptomycin, and 1% L-glutamine). C2C12 cells were cultured and differentiated to myotubes. Cells were kept in a humidified incubator with 5% CO2 at 37° C. HEK293T cells were transfected with polyethyleneimine (PEI) linear MW 25,000 Da (Sigma-Aldrich) according to well dimensions. DNA: PEI (0.5% v/v) ratio was 1:1. At 24 hours after the transfection the DMEM complete medium supplemented with 10% FBS was changed with DMEM supplemented with charcoal stripped FBS and cells were treated with vehicle (ethanol) or 10 nM DHT and harvested for the different analysis 24 h after the treatment. […] MN-1 cells were transfected with Lipofectamine 2000 according to manufacturer instructions (Thermo Fisher). […] The following day, positively transfected cells were selected with […] Blasticidin (PanReacApplichem, A3784,0025). […]

AR = assay: Transcriptional assay in HEK293T cells expressing AR24Q or AR65Q, with LSD1/PRMT6 overexpression or CRISPR silencing; format: cell-based, human; conditions: 16 h, inhibitor 10 μM; for effect of overexpression of LSD1 on AR transactivation: AR24Q and AR65Q with LSD1, DHT 10 nM; for effect of overexpression of PRMT6 on AR transactivation: AR24Q and AR65Q with PRMT6, DHT 10 nM
Procedure: Cell Cultures, Transfection, and Transduction MN1^9 and HEK293T (ATCC) cells were cultured and plated in DMEM complete medium [Dulbecco's Modified Eagle Medium supplemented with 10% fetal bovine serum (FBS), 1% penicillin/streptomycin (pen/strep), and 1% L-glutamine] and LNCaP cells in RPMI complete medium (Gibco Roswell Park Memorial Institute supplemented with 10% FBS, 1% penicillin/streptomycin, and 1% L-glutamine). C2C12 cells were cultured and differentiated to myotubes. Cells were kept in a humidified incubator with 5% CO2 at 37° C. HEK293T cells were transfected with polyethyleneimine (PEI) linear MW 25,000 Da (Sigma-Aldrich) according to well dimensions. DNA: PEI (0.5% v/v) ratio was 1:1. At 24 hours after the transfection the DMEM complete medium supplemented with 10% FBS was changed with DMEM supplemented with charcoal stripped FBS and cells were treated with vehicle (ethanol) or 10 nM DHT and harvested for the different analysis 24 h after the treatment. […] MN-1 cells were transfected with Lipofectamine 2000 according to manufacturer instructions (Thermo Fisher). […] The following day, positively transfected cells were selected with […] Blasticidin (PanReacApplichem, A3784,0025). After 24 hours of selection or at 48 hours post-transduction, cells were induced with 10 nM dihydrotestosterone (DHT) in DMEM or RPMI medium supplemented with 10% charcoal-stripped FBS, 1% pen/strep, and 1% L-glutamine. […] For differentiation stably transfected iPSCs were induced with Neural Induction Medium (NIM) containing […] doxycycline and 10 nM R1881. After 48 hours of doxycycline treatment, motor neurons were dissociated with accutase to single cells and re-plated on PDL/Laminin coated surfaces in Neural Differentiation Medium (NDM) containing […] doxycycline and 10 nM R1881. On day 4, half of the cell culture medium was removed and replaced by Neuron Medium (NM) containing 10 nM R1881.
Luciferase assays were performed. In brief, HEK293T cells were transfected with vectors expressing non-expanded and polyglutamine-expanded AR together with vectors expressing the luciferase reporter gene under the control of a canonical androgen responsive element (ARE-Luc). To normalize data for transfection efficiency, the cells express Renilla reporter gene under the control of the timidine kinase (TK-Ren) transfected with ARE-Luc in a ratio of 1:10. Cells are treated with vehicle and DHT for 16 h and then processed for luciferase assay, as manufacturer's instructions (Promega).

AR100Q mice = conditions: three times a week, from week 4
Procedure: A randomized cohort of male transgenic AR100Q mice and WT siblings was assigned to either control or treated group.
Phenelzine was administered at a dose of 30 mg/Kg in drinking water; three times a week; TCP was administered at a dose of 6 mg/Kg intraperitoneal, three times a week.
Mice were randomized and the operators were blind for genotype and treatment. The phenotype was analyzed by looking at muscle strength with grip strength test.

AR24Q (human) = AR24Q (human) (UniProt P10275); assay: cell-based or functional assay
AR65Q (human) = AR65Q (human) (UniProt P10275); assay: cell-based or functional assay
Prmt6 = assay: Western blots of PRMT6 in MN1 cells transfected with amiR vectors; format: cell-based, mouse
Procedure: as §1, with “L-glutamine.” for “L-glutamine. The SBMA iPSCs were derived and differentiated. iPSCs were maintained on Matrigel (Corning, 354277) coated tissue culture dishes in E8 Flex medium (Thermo Fisher, A2858501).”
(§2) The protein concentration was measured using the bicinchoninic acid (BCA) assay method (Pierce™ BCA® Protein Assay, Thermo Scientific). […]

Lsd1 = assay: Western blots of LSD1 in MN1 cells transfected with amiR vectors; format: cell-based, mouse
Procedure: as §1, with “L-glutamine.” for “L-glutamine. The SBMA iPSCs were derived and differentiated. iPSCs were maintained on Matrigel (Corning, 354277) coated tissue culture dishes in E8 Flex medium (Thermo Fisher, A2858501).”
as §2

With `N[C@@H]1C[C@H]1c1ccccc1` (racemic) [TCP, tranylcypromine] the “polyQ-expanded AR transactivation induced by DHT” value (polyQ-expanded AR) was “reduced”, the “normal AR transactivation induced by DHT” value (normal AR) was “reduced” and the “effect of overexpression of LSD1 on AR transactivation” value (AR) was “reduced”. The “effect of overexpression of PRMT6 on AR transactivation” value (AR) was “attenuated” and the “phenotype of AR100Q mice (grip strength normalized to body weight)” value (AR100Q mice; 6 mg/Kg intraperitoneal) was “ameliorated”.

In the case of `Nc1ncnc2c1ncn2C(C=O)OC(C=O)CO` (stereo not shown) [AdOx, adenosine dialdehyde], the “polyQ-expanded AR transactivation induced by DHT” value (polyQ-expanded AR) is reported as “reduced”, the “normal AR transactivation induced by DHT” value (normal AR) is reported as “reduced” and the “effect of overexpression of LSD1 on AR transactivation” value (AR) is reported as “reduced”. For the same molecule, the “effect of overexpression of PRMT6 on AR transactivation” value (AR) was “attenuated”.

With `NNCCc1ccccc1` [Phenelzine, phenelzine] the “phenotype of AR100Q mice (grip strength normalized to body weight)” value (AR100Q mice; 30 mg/Kg in drinking water) was “ameliorated”.

`C/C(=N\NC(=O)c1cccc(S(=O)(=O)N2CCOCC2)c1)c1cc(Cl)ccc1O` [SP-2509] was tested, and the “polyQ-expanded AR transactivation” value (polyQ-expanded AR; inhibitor 100 nM) was “did not modify”.

In the case of “protein arginine methyltransferase 6 (PRMT6) (from UniProt Q96LA8 1-375)”, the AR transactivation (transcriptional assay, HEK293T cells) (AR24Q (human)) is reported as 3.1 fold and the AR transactivation (transcriptional assay, HEK293T cells) (AR65Q (human)) is reported as 3.4 fold.

B1: amiR-Prmt6 #2: artificial miRNA targeting mouse Prmt6, oligos SEQ ID NO: 141, 142 (nucleic acid)
chain 1: TGCTGCGGAGTAGCACTCGTAGTACAGTTTTGGCCACTGACTGACTGTACTACGTGCTACTCCG
chain 2: CCTGCGGAGTAGCACGTAGTACAGTCAGTCAGTGGCCAAAACTGTACTACGAGTGCTACTCCGC
modifications: expressed or natural sequence
With B1 the “silencing of Prmt6” value (Prmt6) was ~ 50%.

B2: amiR-Lsd1 #1: artificial miRNA targeting mouse Lsd1, oligos SEQ ID NO: 153, 154 (nucleic acid)
chain 1: TGCTGTTTCTCTGTATTCTACCTTGGGTTTTGGCCACTGACTGACCCAAGGTAATACAGAGAAA
chain 2: CCTGTTTCTCTGTATTACCTTGGGTCAGTCAGTGGCCAAAACCCAAGGTAGAATACAGAGAAAC
modifications: expressed or natural sequence
With B2 the “silencing of Lsd1 expression” value (Lsd1) was 50%.

B3: amiR-Lsd1 #2: artificial miRNA targeting mouse Lsd1, oligos SEQ ID NO: 155, 156 (nucleic acid)
chain 1: TGCTGTTTACTTGTTTGCTGACGACAGTTTTGGCCACTGACTGACTGTCGTCAAAACAAGTAAA
chain 2: CCTGTTTACTTGTTTTGACGACAGTCAGTCAGTGGCCAAAACTGTCGTCAGCAAACAAGTAAAC
modifications: expressed or natural sequence
For B3, the “silencing of Lsd1 expression” value (Lsd1) was 70%.

B4: amiR-Prmt6 #7: artificial miRNA targeting mouse Prmt6, oligos SEQ ID NO: 151, 152 (nucleic acid)
chain 1: TGCTGTATTAGATTAGAGTGCTCGCGGTTTTGGCCACTGACTGACCGCGAGCACTAATCTAATA
chain 2: CCTGTATTAGATTAGTGCTCGCGGTCAGTCAGTGGCCAAAACCGCGAGCACTCTAATCTAATAC
modifications: expressed or natural sequence
In the case of B4, the “silencing of Prmt6” value (Prmt6) is reported as ~ 50%.

B5: amiR-Lsd1 #3: artificial miRNA targeting mouse Lsd1, oligos SEQ ID NO: 234, 235 (nucleic acid)
chain 1: TGCTGTTGATGAGAGGTATACATCACGTTTTGGCCACTGACTGACGTGATGTACCTCTCATCAA
chain 2: CCTGTTGATGAGAGGTACATCACGTCAGTCAGTGGCCAAAACGTGATGTATACCTCTCATCAAC
modifications: expressed or natural sequence
For B5, the “silencing of Lsd1 expression” value (Lsd1) was 70%.

B6: amiR-Prmt6 #6: artificial miRNA targeting mouse Prmt6, oligos SEQ ID NO: 149, 150 (nucleic acid)
chain 1: TGCTGAATCAGACCATGTTGCCTTTCGTTTTGGCCACTGACTGACGAAAGGCAATGGTCTGATT
chain 2: CCTGAATCAGACCATTGCCTTTCGTCAGTCAGTGGCCAAAACGAAAGGCAACATGGTCTGATTC
modifications: expressed or natural sequence
With B6 the “silencing of Prmt6” value (Prmt6) was ~ 50%.
